A word on the EC50: it is the concentration needed to bring the measured effect to its halfway point.

The target of this experiment is T1, human M2 receptor (Homo sapiens, UniProt P08172).
T1 sequence (P08172 1-466): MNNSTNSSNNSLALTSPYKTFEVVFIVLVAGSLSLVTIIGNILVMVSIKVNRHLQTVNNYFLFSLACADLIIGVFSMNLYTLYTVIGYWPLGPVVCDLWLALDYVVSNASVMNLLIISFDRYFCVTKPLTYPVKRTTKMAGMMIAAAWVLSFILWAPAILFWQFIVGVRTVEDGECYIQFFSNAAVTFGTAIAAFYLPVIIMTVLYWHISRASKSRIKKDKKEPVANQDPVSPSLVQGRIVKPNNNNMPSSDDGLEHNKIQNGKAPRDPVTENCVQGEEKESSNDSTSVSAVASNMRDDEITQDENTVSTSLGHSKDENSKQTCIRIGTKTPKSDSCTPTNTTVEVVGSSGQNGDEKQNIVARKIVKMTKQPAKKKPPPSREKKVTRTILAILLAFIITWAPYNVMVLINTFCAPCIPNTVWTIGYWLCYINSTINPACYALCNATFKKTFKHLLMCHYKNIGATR
Particulars: Receptor activity EC50, M2-GIRK1/4 activation test, acetylcholine at EC20; allosteric potency; in some cases mean values from two or more determinations.
Compound `CC(C)C[C@@H](NC(=O)c1cn(-c2ccc(F)cc2F)c2nc(N(C)C)ccc2c1=O)C(F)(F)F` [Example 133, 1-(2,4-Difluorophenyl)-7-(dimethylamino)-4-oxo-N-[(2R)-1,1,1-trifluoro-4-methylpentan-2-yl]-1,4-dihydro-1,8-naphthyridine-3-carboxamide] displayed an EC50 of 19 nM.

`CC(C)[C@H](NC(=O)c1cn(-c2ccc(F)cc2F)c2nc(N(C)C)ccc2c1=O)C(F)(F)F` [Example 134, 1-(2,4-Difluorophenyl)-7-(dimethylamino)-4-oxo-N-[(2S)-1,1,1-trifluoro-3-methylbutan-2-yl]-1,4-dihydro-1,8-naphthyridine-3-carboxamide]: the EC50 amounted to 32 nM.

`O=C(NC12CC3CC(CC(C3)C1)C2)c1cn(-c2ccc(F)cc2F)c2nc(N3CCOCC3)ccc2c1=O` [Example 136, 1-(2,4-Difluorophenyl)-7-(morpholin-4-yl)-4-oxo-N-(tricyclo[3.3.1.1^3,7]dec-1-yl)-1,4-dihydro-1,8-naphthyridine-3-carboxamide] gave an EC50 of 24 nM.

`CC(C)C[C@H](NC(=O)c1cn(-c2ccc(F)cc2F)c2nc(N(C)C)ccc2c1=O)C(F)(F)F` [Example 137, 1-(2,4-Difluorophenyl)-7-(dimethylamino)-4-oxo-N-[(2S)-1,1,1-trifluoro-4-methylpentan-2-yl]-1,4-dihydro-1,8-naphthyridine-3-carboxamide] came in with an EC50 of 16 nM.

Compound `CN(C)c1ccc2c(=O)c(C(=O)NC(C(F)(F)F)C(F)(F)F)cn(-c3ccc(F)cc3F)c2n1` [Example 149, 1-(2,4-Difluorophenyl)-7-(dimethylamino)-N-(1,1,1,3,3,3-hexafluoropropan-2-yl)-4-oxo-1,4-dihydro-1,8-naphthyridine-3-carboxamide] gave a concentration for a half-maximal effect (EC50) of 85 nM.

For the compound `CN(C)c1ccc2c(=O)c(C(=O)NC3(C(F)(F)F)CCCC3)cn(-c3ccc(F)cc3F)c2n1` [Example 151, 1-(2,4-Difluorophenyl)-7-(dimethylamino)-4-oxo-N-[1-(trifluoromethyl)cyclopentyl]-1,4-dihydro-1,8-naphthyridine-3-carboxamide], the response was half-maximal at 23 nM (EC50). Against the preceding compound, the EC50 is about 3.7-fold lower.

In turn, `CN(C)c1ccc2c(=O)c(C(=O)NC34CCC(CC3)CC4)cn(-c3ccc(F)cc3Cl)c2n1` [Example 152, N-(Bicyclo[2.2.2]oct-1-yl)-1-(2-chloro-4-fluorophenyl)-7-(dimethylamino)-4-oxo-1,4-dihydro-1,8-naphthyridine-3-carboxamide] displayed a half-maximal effective concentration (EC50) of 10 nM. This EC50 is about 2.3-fold lower than that of the compound before.

`CN(C)c1ccc2c(=O)c(C(=O)NC34CC5CC(C3)CC(C(F)(F)F)(C5)C4)cn(-c3ccc(F)cc3Cl)c2n1` [Example 153, 1-(2-Chloro-4-fluorophenyl)-7-(dimethylamino)-4-oxo-N-[3-(trifluoromethyl)tricyclo[3.3.1.1^3,7]dec-1-yl]-1,4-dihydro-1,8-naphthyridine-3-carboxamide] came in with a half-maximal effective concentration (EC50) of 104 nM.

`CN(C)c1ccc2c(=O)c(C(=O)NC3CC34CCCCC4)cn(-c3ccc(F)cc3Cl)c2n1` (centres unmarked) [Example 154, 1-(2-Chloro-4-fluorophenyl)-7-(dimethylamino)-4-oxo-N-(spiro[2.5]oct-1-yl)-1,4-dihydro-1,8-naphthyridine-3-carboxamide] showed a concentration giving a half-maximal response (EC50) of 158 nM.

The compound `CN(C)c1ccc2c(=O)c(C(=O)NC(C)(C)C)cn(-c3ccc(F)cc3Cl)c2n1` [Example 155, N-tert-Butyl-1-(2-chloro-4-fluorophenyl)-7-(dimethylamino)-4-oxo-1,4-dihydro-1,8-naphthyridine-3-carboxamide] showed a concentration for a half-maximal effect (EC50) of 173 nM.

In turn, `CN(C)c1ccc2c(=O)c(C(=O)NC3(C)CCCCC3)cn(-c3ccc(F)cc3Cl)c2n1` [Example 156, 1-(2-Chloro-4-fluorophenyl)-7-(dimethylamino)-N-(1-methylcyclohexyl)-4-oxo-1,4-dihydro-1,8-naphthyridine-3-carboxamide] gave a concentration for a half-maximal effect (EC50) of 86 nM.

`CCC12CC3CC(C1)CC(NC(=O)c1cn(-c4ccc(F)cc4Cl)c4nc(N(C)C)ccc4c1=O)(C3)C2` [Example 157, 1-(2-Chloro-4-fluorophenyl)-7-(dimethylamino)-N-(3-ethyltricyclo[3.3.1.1^3,7]dec-1-yl)-4-oxo-1,4-dihydro-1,8-naphthyridine-3-carboxamide] returned a concentration for a half-maximal effect (EC50) of 67 nM.

In the case of `CC(C)Nc1ccc2c(=O)c(C(=O)NC34CC5CC(CC(C5)C3)C4)cn(-c3ccc(F)cc3F)c2n1` [Example 158, 1-(2,4-Difluorophenyl)-4-oxo-7-(propan-2-ylamino)-N-(tricyclo[3.3.1.1^3,7]dec-1-yl)-1,4-dihydro-1,8-naphthyridine-3-carboxamide], it took 184 nM to reach a half-maximal effect (EC50).

In the case of `CNc1ccc2c(=O)c(C(=O)NC34CC5CC(C3)CC(C(F)(F)F)(C5)C4)cn(-c3ccc(F)cc3F)c2n1` [Example 160, 1-(2,4-Difluorophenyl)-7-(methylamino)-4-oxo-N-[3-(trifluoromethyl)tricyclo[3.3.1.1^3,7]dec-1-yl]-1,4-dihydro-1,8-naphthyridine-3-carboxamide], the EC50 was determined as 85 nM.

`CNc1ccc2c(=O)c(C(=O)NC34CC5CC(C3)C(F)(F)C(C5)C4)cn(-c3ccc(F)cc3F)c2n1` [Example 161] yielded an EC50 of 137 nM. Against the preceding compound, the EC50 is about 1.6-fold higher.

With `CNc1ccc2c(=O)c(C(=O)NC34CCC(CC3)CC4)cn(-c3ccc(F)cc3F)c2n1` [Example 162], a half-maximal effect (EC50) was put at 38 nM. Compared with the last compound, the EC50 is about 3.6-fold lower.

The compound `O=C(NC12CC3CC(CC(C3)C1)C2)c1cn(-c2ccc(F)cc2F)c2nc(N3CCCCC3=O)ccc2c1=O` [Example 165, 1-(2,4-Difluorophenyl)-4-oxo-7-(2-oxopiperidin-1-yl)-N-(tricyclo[3.3.1.1^3,7]dec-1-yl)-1,4-dihydro-1,8-naphthyridine-3-carboxamide] gave an EC50 of 11 nM.

Consider `O=C(NC12CC3CC(CC(C3)C1)C2)c1cn(-c2ccc(F)cc2F)c2nc(N3CCCS3(=O)=O)ccc2c1=O` [Example 167], for which the EC50 was found to be 47 nM.

As to `CN(c1ccc2c(=O)c(C(=O)NC34CC5CC(CC(C5)C3)C4)cn(-c3ccc(F)cc3F)c2n1)S(C)(=O)=O` [Example 169], the EC50 stood at 101 nM.

Compound `O=C(NC12CC3CC(CC(C3)C1)C2)c1cn(-c2ccc(F)cc2F)c2nc(N3C[C@@H](O)CC3=O)ccc2c1=O` [Example 170] had a concentration giving a half-maximal response (EC50) of 19 nM. Against the preceding compound, the EC50 is about 5.3-fold lower.

`O=C(NC12CC3CC(CC(C3)C1)C2)c1cn(-c2ccc(F)cc2F)c2nc(N3CC(F)(F)CCC3=O)ccc2c1=O` [Example 171]: the concentration for a half-maximal effect (EC50) turned out to be 30 nM.

Regarding `O=C(NC12CC3CC(CC(C3)C1)C2)c1cn(-c2ccc(F)cc2F)c2nc(N3CCOCC3=O)ccc2c1=O` [Example 172], a half-maximal response (EC50) required 83 nM. This EC50 lies about 2.8-fold higher than the previous one.

Compound `O=C(NC12CC3CC(CC(C3)C1)C2)c1cn(-c2ccc(F)cc2F)c2nc(N3CCC(O)CC3=O)ccc2c1=O` (centres unmarked) [Example 173] came in with an EC50 of 88 nM.

`CC[C@@H](NC(=O)c1cn(-c2ccc(F)cc2F)c2nc(N3CCCCC3=O)ccc2c1=O)C(F)(F)F` [Example 178] gave an EC50 of 197 nM.

For `CC(NC(=O)c1cn(-c2ccc(F)cc2F)c2nc(N3CCCC3=O)ccc2c1=O)C(F)(F)F` (centres unmarked) [Example 179], a half-maximal response (EC50) required 169 nM. This EC50 and that of the compound before are within 1.5-fold of each other.

`CCC(NC(=O)c1cn(-c2ccc(F)cc2F)c2nc(N3CCCS3(=O)=O)ccc2c1=O)C(F)(F)F` (centres unmarked) [Example 180] gave a concentration giving a half-maximal response (EC50) of 115 nM. The EC50 values of the last two compounds are within 1.5-fold of each other.

`O=C(NCc1c(Cl)cccc1Cl)c1cn(-c2ccc(F)cc2F)c2nc(N3CCCS3(=O)=O)ccc2c1=O` [Example 182, N-(2,6-Dichlorobenzyl)-1-(2,4-difluorophenyl)-7-(1,1-dioxido-1,2-thiazolidin-2-yl)-4-oxo-1,4-dihydro-1,8-naphthyridine-3-carboxamide]: it took 182 nM to reach a half-maximal effect (EC50).

`CC(C)(NC(=O)c1cn(-c2ccc(F)cc2F)c2nc(N3CCNC3=O)ccc2c1=O)c1c(F)cccc1F` [Example 184, 1-(2,4-Difluorophenyl)-N-[2-(2,6-difluorophenyl)propan-2-yl]-4-oxo-7-(2-oxoimidazolidin-1-yl)-1,4-dihydro-1,8-naphthyridine-3-carboxamide] yielded an EC50 of 129 nM.

For `O=C(NC12CC3CC(CC(C3)C1)C2)c1cn(-c2ccc(F)cc2F)c2nc(N3CCNC3=O)ccc2c1=O` [Example 186, 1-(2,4-Difluorophenyl)-4-oxo-7-(2-oxoimidazolidin-1-yl)-N-(tricyclo[3.3.1.1^3,7]dec-1-yl)-1,4-dihydro-1,8-naphthyridine-3-carboxamide], the EC50 was 30 nM.

In turn, `CC[C@@H](NC(=O)c1cn(-c2ccc(F)cc2F)c2nc(N3CC(OC(=O)NC)CC3=O)ccc2c1=O)C(F)(F)F` (stereo partly drawn) [Example 200, (3S)-1-[8-(2,4-Difluorophenyl)-5-oxo-6-{[(2R)-1,1,1-trifluorobutan-2-yl]carbamoyl}-5,8-dihydro-1,8-naphthyridin-2-yl]-5-oxopyrrolidin-3-yl methyl carbamate] returned an EC50 of 293 nM.

`CC(NC(=O)c1cn(-c2ccc(F)cc2F)c2nc(N3C[C@@H](O)CC3=O)ccc2c1=O)c1ccccc1F` (stereo partly drawn) [Example 235, 1-(2,4-Difluorophenyl)-N-[1-(2-fluorophenyl)ethyl]-7-[(4S)-4-hydroxy-2-oxopyrrolidin-1-yl]-4-oxo-1,4-dihydro-1,8-naphthyridine-3-carboxamide] gave an EC50 of 207 nM.

Consider `COCC(C)(NC(=O)c1cn(-c2ccc(F)cc2F)c2nc(N3C[C@@H](O)CC3=O)ccc2c1=O)C(F)(F)F` (stereo partly drawn) [Example 236, 1-(2,4-Difluorophenyl)-7-[(4S)-4-hydroxy-2-oxopyrrolidin-1-yl]-4-oxo-N-[1,1,1-trifluoro-3-methoxy-2-methylpropan-2-yl]-1,4-dihydro-1,8-naphthyridine-3-carboxamide], for which the midpoint of the response, the EC50, lay at 860 nM.

For the origin of these results see patent US20190367516A1 (Bayer Pharma Aktiengesellschaft, priority 2015, published 2019).
